For the test, the target named is T1, Human recombinant LSD1 protein (Homo sapiens, UniProt O60341).
T1 construct: purchased Active Motif (Carlsbad, CA); host or cells: E. coli
Description: LSD1 enzymatic activity assay (AlphaLISA, Biotin-H3K4Me peptide substrate). It is filed as biochemical. The following applies: 4 nM LSD1, 80 nM Biotin-H3K4Me peptide substrate, 1% DMSO, compounds tested as the TFA salt. As for the experimental part: Human recombinant LSD1 protein expressed in E. coli cells was purchased from Active Motif (Carlsbad, CA). Biotin-labeled Histone H3K4Me peptide (residues 1-21 with Lys 4 monomethylated) substrate was purchased from Anaspec (Fremont, CA). Enzymatic activity was assessed using the AlphaLISA technology from Perkin Elmer Life Sciences (Waltham, MA). 2.5 µL of compound solution and 5 µL of LSD1 solutions in the assay buffer (50mM Tris, pH 9.0, 50mM NaCl with 0.01% Tween20 and 1mM DTT added right before the assay) were added into a white low volume 384 well microtiter plate. This mixture solution was incubated for 15 minutes with gentle shaking at room temperature. Demethylation reaction was initiated by adding 2.5 µL of Biotin-H3K4Me peptide substrate solution in the assay buffer. Final concentrations of LSD1, Biotin-H3K4Me peptide substrate, and DMSO were 4 nM, 80 nM, and 1%, respectively. […] Plates were read on a BMG CLARIOStar multimode plate reader from BMG Labtech (Ortenberg, Germany) with an excitation wavelength of 680 nm and emission wavelength of 615 nm. IC50 values of inhibitors were obtained by fitting the fluorescence intensity vs inhibitor concentrations in a sigmoidal dose-response curve (variable slope) with a non-linear regression using Prism 7 (La Jolla, CA). […]
On the technique in general: Alpha assays give light when donor and acceptor beads are brought close together.

For the compound `Cn1ncc2cc(-c3ncc4c(ccn4CC4CCNCC4)c3-c3ccc(C#N)cc3F)ccc21` [compound 89, 3-fluoro-4-(5-(1-methyl-1H-indazol-5-yl)-1-(piperidin-4-ylmethyl)-1H-pyrrolo[2,3-c]pyridin-4-yl)benzonitrile], the IC50 worked out at […].
The same measure for `CN(C)c1ccc(-c2ncc3c(ccn3CC3CCNCC3)c2-c2ccc(C#N)cc2)cc1` [compound 85, 4-(5-(4-(dimethylamino)phenyl)-1-(piperidin-4-ylmethyl)-1H-pyrrolo[2,3-c]pyridin-4-yl)benzonitrile]: 0.0231 µM.

By IC50 is commonly meant the concentration needed to halve the response being measured.

The values are drawn from patent publication EP3628044B1, “PYRROLO[2,3-C]PYRIDINES AND RELATED ANALOGS AS LSD-1 INHIBITORS” (The Regents of The University of Michigan, priority 2017, dated 2018).
